# Source: patent US8436004B2, “Bicycloaniline derivative” (MSD K.K., priority 2007, dated 2013)
# pEC50, pIC50: −log10 of the molar value.
# Columns and labels:
# [1] = test system: Cdc2 (Cdk1) tyrosine 15-phosphorylation in NCI-H1299 cells; experiment: Cdc2 (Cdk1) tyrosine 15-phosphorylation-inhibitory effect in camptothecin-treated NCI-H1299 cells (ELISA); type: cell-based; conditions: Homo sapiens; NCI-H1299, camptothecin 200 nM 16 hours, then test compound + nocodazole 8 hours; read-out: Cdc2-Y15 Phosphorylation-Inhibitory Effect (H1299, + camptothecin) (EC50)
# Source text: Pharmacological Test 2 (Method of Determining Drug Potency with Cells (Cdc2 (Cdk1) Tyrosine 15-Phosphorylation-Inhibitory Effect))
# Fetal bovine serum (FBS) was obtained from Morgate; media RPMI1640 and DMEM were from Invitrogen; camptothecin was from Sigma; gemcitabine was from Nippon Eli Lilly; nocodazole and protease inhibitor cocktail were from Sigma; rabbit anti-Cdc2 antibody and mouse anti-Cdc2 antibody were from Santa Cruz Biotechnology; rabbit anti-tyrosine 15-phosphorylated Cdc2 antibody and horseradish peroxidase-labeled anti-mouse IgG antibody were from Cell Signaling Technology; sure blue reserve TMB peroxidase substrate was from Kirkegaard and Perry Laboratories.
# Human non-small cell lung cancer cells (NCI-H1299) and human colon cancer cells (WiDr) were obtained from American Type Culture Collection (ATCC).
# In the method of using NCI-H1299 cells, the cells were suspended in a medium of 10% FBS-added RPMI1640, and the cell suspension was applied to a 96-well Nunclondelta-processed plastic plate (bought from Nunc), in an amount of 2000 cells/100 μL/well, in which the cells were incubated overnight in 5% CO2-95% air at 37° C. Camptothecin was dissolved in dimethylsulfoxide (DMSO), and diluted with a medium of 10% FBS-added RPMI1640, and then this was applied to the plate on which the cells had been previously sowed, in an amount of 50 μL/well in such a manner that the final concentration of camptothecin could be 200 nM. Then, the cells were incubated for 16 hours at 37° C. in 5% CO2-95% air. The test compound was stepwise diluted with DMSO, then diluted with 4000 nM nocodazole-containing, 10% FBS-added RPMI1640, and applied to the plate on which the camptothecin-treated cells had been sowed, in an amount of 50 μL/well. The cells were incubated for 8 hours at 37° C. in 5% CO2-95% air, then the culture was removed, and a cytolytic buffer was added to the plate in an amount of 100 μL/well, shaken at 4° C. for 2 hours, then frozen at −80° C., and thawed to give a cell solution. Cdc2 and tyrosine 15-phosphorylated Cdc2 in the cell solution were determined through enzyme-linked immunosorbent assay (ELISA), and the ratio of tyrosine 15-phosphorylated Cdc2 to Cdc2 was calculated to obtain the 50% phosphorylation-inhibitory concentration of the test compound to the cells (EC50, nM). The cytolytic buffer used herein is an aqueous solution containing 20 mM Hepes (pH 7.5), 150 mM sodium chloride, 1 mM disodium ethylenediaminetetraacetate, 0.1% polyoxyethylene (10) octylphenyl ether, 1% protease inhibitor cocktail, 1 mM dithiothreitol, 2 mM sodium orthovanadate, 10 mM sodium fluoride and 10 mM glycerol diphosphate. Cdc2 was determined through ELISA as follows: A rabbit anti-Cdc2 antibody solution, which had been diluted 200-fold with 50 mM carbonate-bicarbonate buffer (pH 9.6), was applied to a 96-well maxisorpimmuno plate (bought from Nunc), in an amount of 50 μL/well, and statically kept overnight at 4° C. so as to fix the antibody on the plate. Next, this was washed three times with phosphate-buffered physiological saline (PBS), and 5% bovine serum albumin-containing PBS (5% BSA/PBS) was added thereto in an amount of 300 μL/well, and statically kept at room temperature for 2 hours, and then again washed three times with PBS. A mouse anti-Cdc2 antibody solution that had been diluted 100-fold with 0.05% polyoxyethylene sorbitan monolaurate and 1% BSA-containing Tris-HCl-buffered physiological saline (1% BSA/TBS-T) was added to it in an amount of 50 μL/well, and the cell solution was added thereto in an amount of 5 μL/well and statically kept overnight at 4° C. Next, this was washed three times with 0.05% polyoxyethylene sorbitan monolaurate and 0.1% BSA-containing Tris-HCl-buffered physiological saline (0.1% BSA/TBS-T), and then a horseradish peroxidase-labeled anti-mouse IgG antibody solution that had been diluted 2000-fold with 1% BSA/TBS-T was added thereto in an amount of 70 μL/well, and statically kept at room temperature for 3 hours. […]
# Wee1 kinase = target: T1, Wee1 kinase (Homo sapiens, UniProt P30291); experiment: Wee1 kinase-inhibitory effect (33P-ATP, Poly(Lys,Tyr) substrate, filter assay); type: biochemical; conditions: 10 μM ATP, 30° C., 30 minutes
# T1 construct: made in house; host or cells: Sf9 insect cells (recombinant baculovirus)
# Source text: Pharmacological Test 1 (Wee1 Kinase-Inhibitory Effect)
# (1) Purification of Wee1 Kinase:
# A cDNA of Wee1 kinase with […] (GST) fused at the amino terminal thereof was inserted into a baculovirus expression vector to construct a recombinant baculovirus, with which cells of an insect cell line Sf9 were infected for high expression therein. The infected cells were recovered and solubilized, and then the GST-tagged Wee1 kinase protein was adsorbed by a glutathion column, and eluted from the column with glutathion, and the active fraction was desalted in a desalting column to give a purified enzyme.
# (2) Determination of Wee1 Kinase Activity:
# In determination of the Wee1 kinase activity, a synthetic peptide, Poly(Lys,Tyr) Hydrobromide (Lys:Tyr (4:1)) bought from Sigma was used as the substrate.
# The amount of the reaction liquid was 21.1 μL; and the composition of the reaction buffer was 50 mM Tris-HCl buffer (pH 7.4)/10 mM magnesium chloride/1 mM dithiothreitol. The purified Wee1 kinase, 2.5 μg of the substrate peptide, 10 μM of non-labeled adenosine triphosphate (ATP) and 1 μCi of [γ-^33P]-labeled ATP (2500 Ci/mmol or more) were added to it, and reacted at 30° C. for 30 minutes. Next, 10 μL of 350 mM phosphate buffer was added to the reaction system to stop the reaction. The substrate peptide was adsorbed by a P81 paper filter 96-well plate, then washed a few times with 130 mM phosphate buffer, and its radioactivity was counted with a liquid scintillation counter. The [γ-^33P]-labeled ATP was bought from Amersham Bioscience.
# To add the test compound to the reaction system, the compound was diluted with dimethylsulfoxide (DMSO) to prepare a series of dilutions. 1.1 μL of each dilution was added to the reaction system. As a control, 1.1 μL of DMSO was added to the reaction system.
# T1 sequence (P30291 whole entry): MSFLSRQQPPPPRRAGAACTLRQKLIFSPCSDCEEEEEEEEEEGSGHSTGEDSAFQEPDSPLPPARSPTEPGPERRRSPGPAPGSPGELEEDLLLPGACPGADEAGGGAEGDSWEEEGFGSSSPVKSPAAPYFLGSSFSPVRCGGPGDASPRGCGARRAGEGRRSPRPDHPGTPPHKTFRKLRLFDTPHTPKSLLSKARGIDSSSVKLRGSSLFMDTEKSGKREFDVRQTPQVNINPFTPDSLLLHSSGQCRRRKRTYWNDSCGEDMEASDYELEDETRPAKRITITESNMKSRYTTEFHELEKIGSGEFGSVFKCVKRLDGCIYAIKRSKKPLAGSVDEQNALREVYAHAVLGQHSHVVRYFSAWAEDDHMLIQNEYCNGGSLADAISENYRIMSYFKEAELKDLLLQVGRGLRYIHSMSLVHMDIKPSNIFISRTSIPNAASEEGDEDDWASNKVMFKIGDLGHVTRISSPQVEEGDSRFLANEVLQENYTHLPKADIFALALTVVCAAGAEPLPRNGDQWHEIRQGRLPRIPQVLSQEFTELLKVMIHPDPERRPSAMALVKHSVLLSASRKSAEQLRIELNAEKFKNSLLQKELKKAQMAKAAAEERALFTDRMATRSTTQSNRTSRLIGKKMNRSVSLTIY
Structure (SMILES),pEC50 [1],pIC50 (Wee1 kinase)
"CN1CCc2cc(Nc3ncc4c(=N)n(-c5c(Cl)cccc5Cl)c(=O)[nH]c4n3)ccc2C1(C)C [Example 4, 3-(2,6-dichlorophenyl)-4-imino-7-[(1,1,2-trimethyl-1,2,3,4-tetrahydroisoquinolin-6-yl)amino]-3,4-dihydropyrimido[4,5-d]pyrimidin-2(1H)-one]",7.55,8.08
"CN1CCc2cc(Nc3ncc4c(=N)n(-c5c(Cl)ccnc5Cl)c(=O)[nH]c4n3)ccc2C1(C)C [Example 5, 3-(2,4-dichloropyridin-3-yl)-4-imino-7-{[1,1,2-trimethyl-1,2,3,4-tetrahydroisoqunolin-6-yl]amino}-3,4-dihydropyrimido[4,5-d]pyrimidin-2(1H)-one]",7.15,8.02
CN(C)C1Cc2ccc(Nc3ncc4c(=N)n(-c5c(Cl)cccc5Cl)c(=O)n(C)c4n3)cc2C1 (stereo not drawn) [Example 9],7.62,8.18
CN(C)C1CC(C)(C)c2ccc(Nc3ncc4c(=N)n(-c5c(Cl)cccc5Cl)c(=O)[nH]c4n3)cc21 (stereo not drawn) [Example 10],7.21,7.88
"Cc1cccc(Cl)c1-n1c(=O)[nH]c2nc(Nc3ccc4c(c3)CN(C)CC43CC3)ncc2c1=N [Example 14, 3-(2-chloro-6-methylphenyl)-4-imino-7-[(2′-methyl-2′,3′-dihydro-1′H-spiro[cyclopropane-1,4′-isoquinolin]-7′-yl)amino]-3,4-dihydropyrimido[4,5-d]pyrimidin-2(1H)-one]",7.11,7.98
"CN1CCc2ccc(Nc3ncc4c(=N)n(-c5c(F)cccc5Cl)c(=O)[nH]c4n3)cc2C1 [Example 16, 3-(2-chloro-6-fluorophenyl)-4-imino-7-{[2-methyl-1,2,3,4-tetrahydroisoquinolin-7-yl]amino}-3,4-dihydropyrimido[4,5-d]pyrimidin-2(1H)-one]",7.30,8.17
"CN1CCc2ccc(Nc3ncc4c(=N)n(-c5c(F)cc(F)cc5Cl)c(=O)[nH]c4n3)cc2C1 [Example 17, 3-(2-chloro-4,6-difluorophenyl)-4-imino-7-{[2-methyl-1,2,3,4-tetrahydroisoquinolin-7-yl]amino}-3,4-dihydropyrimido[4,5-d]pyrimidin-2(1H)-one]",7.33,8.04
"CN1CCc2ccc(Nc3ncc4c(=N)n(-c5c(Cl)cc(F)cc5Cl)c(=O)[nH]c4n3)cc2C1 [Example 18, 3-(2,6-dichloro-4-fluorophenyl)-4-imino-7-{[2-methyl-1,2,3,4-tetrahydroisoquinolin-7-yl]amino}-3,4-dihydropyrimido[4,5-d]pyrimidin-2(1H)-one]",7.46,8.05
"Cc1cc(Nc2ncc3c(=N)n(-c4c(Cl)cccc4Cl)c(=O)[nH]c3n2)cc2c1CCN(C)C2 [Example 21, 3-(2,6-dichlorophenyl)-7-{[2,5-dimethyl-1,2,3,4-tetrahydroisoquinolin-7-yl]amino}-4-imino-3,4-dihydropyrimido[4,5-d]pyrimidin-2(1H)-one]",7.96,8.32
"Cn1c(=O)n(-c2c(Cl)cccc2Cl)c(=N)c2cnc(Nc3ccc4c(c3)CCN(CCO)C4(C)C)nc21 [Example 22, 3-(2,6-dichlorophenyl)-7-{[2-(2-hydroxyethyl)-1,1-dimethyl-1,2,3,4-tetrahydroisoquinolin-6-yl]amino}-4-imino-1-methyl-3,4-dihydropyrimido[4,5-d]pyrimidin-2(1H)-one]",7.80,8.28
"CCN1CCc2cc(Nc3ncc4c(=N)n(-c5c(Cl)cccc5Cl)c(=O)[nH]c4n3)ccc2C1 [Example 30, 3-(2,6-dichlorophenyl)-4-imino-7-{[2-ethyl-1,2,3,4-tetrahydroisoquinolin-6-yl]amino}-3,4-dihydropyrimido[4,5-d]pyrimidin-2(1H)-one]",7.60,8.15
CN(C)C1Cc2ccc(Nc3ncc4c(=N)n(-c5c(Cl)cccc5Cl)c(=O)[nH]c4n3)cc2C1 (stereo not drawn) [Example 39],7.43,8.19
CN(C)C1CCc2ccc(Nc3ncc4c(=N)n(-c5c(Cl)cccc5Cl)c(=O)[nH]c4n3)cc2C1 (stereo not drawn) [Example 43],7.35,8.29
"CN1CCc2ccc(Nc3ncc4c(=N)n(-c5c(Cl)cccc5Cl)c(=O)[nH]c4n3)cc2CC1 [Example 48, 3-(2,6-dichlorophenyl)-4-imino-7-[(3-methyl-2,3,4,5-tetrahydro-1H-3-benzazepin-7-yl)amino]-3,4-dihydropyrimido[4,5-d]pyrimidin-2(1H)-one]",7.27,8.07
CN(C)CC1CCc2cc(Nc3ncc4c(=N)n(-c5c(Cl)cccc5Cl)c(=O)[nH]c4n3)ccc2C1 (stereo not drawn) [Example 53],7.23,8.19
"CC(=O)N1CCc2cc(Nc3ncc4c(=N)n(-c5c(Cl)cccc5Cl)c(=O)[nH]c4n3)ccc2C1(C)C [Example 79, 7-[(2-acetyl-1,1-dimethyl-1,2,3,4-tetrahydroisoquinolin-6-yl)amino]-3-(2,6-dichlorophenyl)-4-imino-3,4-dihydropyrimido[4,5-d]pyrimidin-2(1H)-one]",,8.20
"CN1Cc2cc(Nc3ncc4c(=O)n(-c5c(Cl)cccc5Cl)c(=O)[nH]c4n3)ccc2C2(CC2)C1 [Example 82, 3-(2,6-dichlorophenyl)-7-[(2′-methyl-2′,3′-dihydro-1′H-spiro[cyclopropane-1,4′-isoquinolin]-7′-yl)amino]pyrimido[4,5-d]pyrimidin-2,4(1H,3H)-dione]",7.52,8.48
